Experimental data: US20250197408A1, “CRYSTALLINE FORMS AND SALTS OF A PI3K INHIBITOR AND METHODS OF MAKING AND METHODS OF USE THEREOF” (Totus Medicines Inc., priority 2022, published 2025)
In brackets after ≈: the same amount, converted by molar mass.

Assays:
[1] = Solubility in 7 aqueous pH buffers and bio-relevant fluids at 37° C. (HPLC of supernatant; residual solids by XRPD); format: physicochemical; conditions: for solubility at 2 h / solubility at 24 h: thermodynamic from solid
Procedure: 20 mg of the free base Form A of Compound I was weighed into a 20 mL glass vial. Amounts of the salts equivalent to 20 mg anhydrous free base were weighed into a glass vial. 10 mL of solubility medium was added. The resulting suspensions/solutions were stirred at 37° C. at 400 rpm and sampled at 2 hours and at 24 hours, respectively. The samples were centrifuged at 37° C. at 14,000 rpm for 5 min. Supernatants were analyzed by HPLC and pH meter for solubility and pH value, respectively. Residual solids (wet cakes) from the 24 hours samples were also characterized by XRPD to determine physical form.
Residual solids after the solubility test were analyzed by XRPD.

[2] = Dynamic vapor sorption (DVS) analysis at 25° C.; format: physicochemical
Procedure: In one embodiment, the crystalline forms are characterized by Dynamic Vapor Sorption (DVS). The DVS profile is typically expressed by a diagram plotting the sample relative humidity (RH) versus the change in mass (%). The DVS profile provides information on hygroscopicity of the crystalline form at different RH conditions.
A DVS (dynamic vapor sorption) analysis at 25° C. was carried out on Form A** of Compound I benzenesulfonate salt as shown in FIG. 3D.

[3] = ES1, pH 1.2 HCl solution (0.1N), 37° C.
[4] = ES2, pH 4.5 acetate buffer (50 mM), 37° C.
[5] = ES3, pH 6.8 phosphate buffer (50 mM), 37° C.
[6] = ES4, pH 7.4 phosphate buffer (50 mM), 37° C.
[7] = aqueous buffer, ES2, pH 4.5 acetate buffer (50 mM), 37° C.
[8] = aqueous buffer, ES3, pH 6.8 phosphate buffer (50 mM), 37° C.
[9] = aqueous buffer, ES4, pH 7.4 phosphate buffer (50 mM), 37° C.
[10] = simulated gastric fluid, ES1, pH 1.2 HCl solution (0.1N), 37° C.
[11] = simulated gastric fluid, ES5, SGF, pH 2.0, 37° C.

SMILES | pH of supernatant, solubility for 2 h (pH) [1, 3] | pH of supernatant, solubility for 24 h (pH) [1, 3] | pH of supernatant, solubility for 2 h (pH) [1, 4] | pH of supernatant, solubility for 24 h (pH) [1, 4] | pH of supernatant, solubility for 2 h (pH) [1, 5] | pH of supernatant, solubility for 24 h (pH) [1, 5] | pH of supernatant, solubility for 2 h (pH) [1, 6] | pH of supernatant, solubility for 24 h (pH) [1, 6] | pH of supernatant, solubility for 2 h (pH) ([1]; ES5, SGF, pH 2.0, 37° C.) | pH of supernatant, solubility for 24 h (pH) ([1]; ES5, SGF, pH 2.0, 37° C.) | pH of supernatant, solubility for 2 h (pH) ([1]; ES6, FaSSIF-v1, pH 6.5, 37° C.) | pH of supernatant, solubility for 24 h (pH) ([1]; ES6, FaSSIF-v1, pH 6.5, 37° C.) | pH of supernatant, solubility for 2 h (pH) ([1]; ES7, FeSSIF-v1, pH 5.0, 37° C.) | pH of supernatant, solubility for 24 h (pH) ([1]; ES7, FeSSIF-v1, pH 5.0, 37° C.) | hygroscopicity / water sorption behavior (DVS) [2] | solid form of the sample after the DVS test [2] | water uptake (DVS) ([2]; from 40% to 95% RH) | Solubility for 2 h [1, 3] [µg/mL] | Solubility for 24 h [1, 3] [µg/mL] | Solubility for 2 h [1, 4] [µg/mL] | other results
C=CC(=O)NCC(=O)N1CCN(Cc2cc3c(N4CCOCC4)nc(-c4cnc(NC(=O)OC)cc4C(F)(F)F)nn3c2)CC1 [Form A of Compound I, methyl (5-(6-((4-(acryloylglycyl)piperazin-1-yl)methyl)-4-morpholinopyrrolo[2,1-f][1,2,4]triazin-2-yl)-4-(trifluoromethyl)pyridin-2-yl) carbamate] | (1.2) | (1.0) | (4.5) | (4.4) | (6.8) | (6.7) | (7.5) | (7.4) | (2.0) | (1.9) | (6.5) | (6.5) | (5.0) | (5.0) | slightly hygroscopic | still the free base Pattern A | about 1.4% | – | – | – | solubility at 2 h [1, 7]: 200 µg/mL (≈ 317 µM); solubility at 24 h [1, 7]: 300 µg/mL (≈ 475 µM); solubility at 2 h [1, 8]: 2.9 µg/mL (≈ 4.59 µM); solubility at 24 h [1, 8]: 5.1 µg/mL (≈ 8.07 µM); solubility at 2 h [1, 9]: 2.2 µg/mL (≈ 3.48 µM); solubility at 24 h [1, 9]: 3.8 µg/mL (≈ 6.02 µM); solubility at 2 h [1, 10]: 1200 µg/mL (≈ 1900 µM); solubility at 24 h [1, 10]: 1000 µg/mL (≈ 1580 µM); solubility at 2 h [1, 11]: > 2000 µg/mL; solubility at 24 h [1, 11]: > 2000 µg/mL; solubility at 2 h ([1]; ES6, FaSSIF-v1, pH 6.5, 37° C.): 9.4 µg/mL (≈ 14.9 µM); solubility at 24 h ([1]; ES6, FaSSIF-v1, pH 6.5, 37° C.): 11.5 µg/mL (≈ 18.2 µM); solubility at 2 h ([1]; ES7, FeSSIF-v1, pH 5.0, 37° C.): 600 µg/mL (≈ 950 µM); solubility at 24 h ([1]; ES7, FeSSIF-v1, pH 5.0, 37° C.): 600 µg/mL (≈ 950 µM)
C=CC(=O)NCC(=O)N1CCN(Cc2cc3c(N4CCOCC4)nc(-c4cnc(NC(=O)OC)cc4C(F)(F)F)nn3c2)CC1.O=C(O)/C=C\C(=O)O [Form B* of Compound I maleate salt, Methyl (5-(6-((4-(acryloylglycyl)piperazin-1-yl)methyl)-4-morpholinopyrrolo[2,1-f][1,2,4]triazin-2-yl)-4-(trifluoromethyl)pyridin-2-yl) carbamate maleate salt] | (1.3) | (1.3) | (4.5) | (4.5) | (6.6) | (6.6) | (7.3) | (7.3) | (2.0) | (2.0) | (6.1) | (6.1) | (5.0) | (5.0) | nearly monotonic water sorption-desorption behavior depending on RH | still Form B* of Compound I maleate salt | – | 1400 | 1500 | >2000 | Solubility for 24 h [1, 4]: 300 µg/mL; Solubility for 2 h [1, 5]: 6.6 µg/mL; Solubility for 24 h [1, 5]: 4.7 µg/mL; Solubility for 2 h [1, 6]: 1.5 µg/mL; Solubility for 24 h [1, 6]: 1.4 µg/mL; Solubility for 2 h ([1]; ES5, SGF, pH 2.0, 37° C.): >2000 µg/mL; Solubility for 24 h ([1]; ES5, SGF, pH 2.0, 37° C.): >2000 µg/mL; Solubility for 2 h ([1]; ES6, FaSSIF-v1, pH 6.5, 37° C.): 22.9 µg/mL; Solubility for 24 h ([1]; ES6, FaSSIF-v1, pH 6.5, 37° C.): 16.2 µg/mL; Solubility for 2 h ([1]; ES7, FeSSIF-v1, pH 5.0, 37° C.): 1100 µg/mL; Solubility for 24 h ([1]; ES7, FeSSIF-v1, pH 5.0, 37° C.): 1000 µg/mL; water uptake (DVS) ([2]; from 40% to 90% RH): 2.7%
C=CC(=O)NCC(=O)N1CCN(Cc2cc3c(N4CCOCC4)nc(-c4cnc(NC(=O)OC)cc4C(F)(F)F)nn3c2)CC1.O=S(=O)(O)c1ccccc1 [Methyl (5-(6-((4-(acryloylglycyl)piperazin-1-yl)methyl)-4-morpholinopyrrolo[2,1-f][1,2,4]triazin-2-yl)-4-(trifluoromethyl)pyridin-2-yl) carbamate benzenesulfonate salt] | (1.2) | (1.0) | (4.5) | (4.4) | (6.7) | (6.6) | (7.3) | (7.3) | (2.0) | (1.8) | (6.3) | (6.2) | (5.0) | (4.9) | slightly hygroscopic | still the Form A** of Compound I benzenesulfonate salt | about 1.4% | 300 | 400 | 200 | solubility compared among forms ([1]; 37° C., 2 h and 24 h, 7 aqueous pH buffers and bio-relevant fluids): overall lower solubility than that of Form A of Compound I; Solubility for 24 h [1, 4]: 300 µg/mL; Solubility for 2 h [1, 5]: 8.5 µg/mL; Solubility for 24 h [1, 5]: 6.9 µg/mL; Solubility for 2 h [1, 6]: 5.7 µg/mL; Solubility for 24 h [1, 6]: 4.1 µg/mL; Solubility for 2 h ([1]; ES5, SGF, pH 2.0, 37° C.): 200 µg/mL; Solubility for 24 h ([1]; ES5, SGF, pH 2.0, 37° C.): 300 µg/mL; Solubility for 2 h ([1]; ES6, FaSSIF-v1, pH 6.5, 37° C.): 19.6 µg/mL; Solubility for 24 h ([1]; ES6, FaSSIF-v1, pH 6.5, 37° C.): 18.6 µg/mL; Solubility for 2 h ([1]; ES7, FeSSIF-v1, pH 5.0, 37° C.): 700 µg/mL; Solubility for 24 h ([1]; ES7, FeSSIF-v1, pH 5.0, 37° C.): 800 µg/mL
